Measurements published in patent US20250230193A1, “CYCLIC COMPOUND HAVING SELECTIVE KRAS INHIBITORY EFFECT ON HRAS AND NRAS” (CHUGAI SEIYAKU KABUSHIKI KAISHA, priority 2022, published 2025).
Where a SMILES comes first, the peptide text is derived from it. Bridges are numbered along the chain shown (N, C = ends). [ ]: non-standard residue; d: D form. The star is where a group is joined. hPhe(3-Cl-4-CF3) = N[C@@H](CCc1ccc(C(F)(F)F)c(Cl)c1)C(=O)O; NPrPhe(4-CF3) = CCCN[C@@H](Cc1ccc(C(F)(F)F)cc1)C(=O)O; NMeGly(cPent) = CN[C@H](C(=O)O)C1CCCC1; Pro(4,4-F2) = O=C(O)[C@@H]1CC(F)(F)CN1; NMeGly(cBu) = CN[C@H](C(=O)O)C1CCC1; NMeD = CN[C@@H](CC(=O)O)C(=O)O; Morpholide = C1CN(*)CCO1; Ac5c = NC1(C(=O)O)CCCC1; Sar = CNCC(=O)O

Legend:
[1] = molecular target: GDP-bound NRAS wild-type protein (Homo sapiens, UniProt P01111); assay: Binding to NRAS by surface plasmon resonance (SPR), Single Cycle Kinetics; conditions: for NRAS/KRAS (ratio of KD value with respect to NRAS to KD value with respect to KRAS): GDP-bound NRAS wild-type vs GDP-bound KRAS wild-type
[2] = molecular target: GDP-bound HRAS wild-type protein (Homo sapiens, UniProt P01112); assay: Binding to HRAS by surface plasmon resonance (SPR), Single Cycle Kinetics; conditions: for HRAS/KRAS (ratio of KD value with respect to HRAS to KD value with respect to KRAS): GDP-bound HRAS wild-type vs GDP-bound KRAS wild-type
[3] = KD ratio NRAS/KRAS, class symbols
[4] = KD ratio HRAS/KRAS, class symbols

GDP-bound HRAS wild-type protein, sequence (P01112 whole entry): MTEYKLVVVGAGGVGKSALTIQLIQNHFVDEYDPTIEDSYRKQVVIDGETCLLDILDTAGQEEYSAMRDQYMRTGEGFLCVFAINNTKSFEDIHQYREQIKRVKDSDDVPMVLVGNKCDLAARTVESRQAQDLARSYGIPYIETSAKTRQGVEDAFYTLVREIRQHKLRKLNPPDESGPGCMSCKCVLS
GDP-bound NRAS wild-type protein, sequence (P01111 whole entry): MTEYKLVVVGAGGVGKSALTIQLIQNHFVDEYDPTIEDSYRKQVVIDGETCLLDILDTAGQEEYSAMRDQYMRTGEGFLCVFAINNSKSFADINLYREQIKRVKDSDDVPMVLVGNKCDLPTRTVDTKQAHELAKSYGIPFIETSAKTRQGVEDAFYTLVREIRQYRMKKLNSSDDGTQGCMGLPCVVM

## CCC[C@H]1C(=O)N[C@@H]([C@@H](C)CC)C(=O)N(C)CC(=O)N(C)[C@H]2C/C=C\CCN(C2=O)[C@@H](Cc2ccc(C(F)(F)F)cc2)C(=O)N(C)CC(=O)N[C@@H](CCc2ccc(Cl)c(Cl)c2)C(=O)N2C[C@H](OCC)C[C@H]2C(=O)NC2(CC(C)(C)C2)C(=O)N(C)[C@@H](C(CC)CC)C(=O)N(C)[C@H](C(=O)N(C)C)CC(=O)N1C [PP2175]
[1]; SPR
  NRAS/KRAS (ratio of KD value with respect to NRAS to KD value with respect to KRAS): AA (a compound having 20 or more is denoted as AA)
[2]; SPR
  HRAS/KRAS (ratio of KD value with respect to HRAS to KD value with respect to KRAS): A (a compound having 10 or more and less than 20 is denoted as A)

## CCO[C@@H]1C[C@H]2C(=O)NC3(CCC3)C(=O)N(C)[C@@H](C3CCCC3)C(=O)N(C)[C@H](C(=O)N(C)C)CC(=O)N(C)[C@@H](CSC)C(=O)N[C@@H]([C@@H](C)CC)C(=O)N(C)CC(=O)N(C)[C@H]3C/C=C\CCN(C3=O)[C@@H](Cc3ccc(C(F)(F)F)cc3)C(=O)N(C)CC(=O)N[C@@H](CCc3cc(F)c(C(F)(F)F)c(F)c3)C(=O)N2C1 [PP1119]
[1]; KD ratio, SPR
  NRAS/KRAS (ratio of KD value with respect to NRAS to KD value with respect to KRAS): A (a compound having 10 or more and less than 20 is denoted as A)
[2]; KD ratio, SPR
  HRAS/KRAS (ratio of KD value with respect to HRAS to KD value with respect to KRAS): A (a compound having 10 or more and less than 20 is denoted as A)

## CCCN1C(=O)CN(C)C(=O)CN(C)C(=O)[C@H]([C@@H](C)CC)NC(=O)[C@H](C2CCC2)N(C)C(=O)C[C@@H](C(=O)N2CCOCC2)N(C)C(=O)[C@H](C2CCCC2)N(C)C(=O)C2(CCCC2)NC(=O)[C@@H]2CC(F)(F)CN2C(=O)[C@H](CCc2ccc(C(F)(F)F)c(Cl)c2)NC(=O)CN(C)C(=O)[C@@H]1Cc1ccc(C(F)(F)F)cc1 [PP0200] ([NMeGly(cBu)]I[Sar][Sar][NPrPhe(4-CF3)][Sar][hPhe(3-Cl-4-CF3)][Pro(4,4-F2)][Ac5c][NMeGly(cPent)][NMeD]-Morpholide; lactam N-11)
[1]; KD ratio NRAS/KRAS, SPR
  NRAS/KRAS (ratio of KD for GDP-bound NRAS wild-type to KD for KRAS): C (A compound having a KD ratio of 0.1 or more and less than 3 is denoted as C)
[2]; KD ratio HRAS/KRAS, SPR
  HRAS/KRAS (ratio of KD for GDP-bound HRAS wild-type to KD for KRAS): C (A compound having a KD ratio of 0.1 or more and less than 3 is denoted as C)

## CC[C@H](C)[C@@H]1NC(=O)[C@@H]2CCCCCc3ccc(cc3)C[C@@H](C(=O)N(C)CC(=O)N[C@@H](CCc3ccc(C(F)(F)F)c(OC)c3)C(=O)N3C[C@H](OC4CCC4)C[C@H]3C(=O)NC3(CC(C)(C)C3)C(=O)N(C)[C@@H](C3CCCC3)C(=O)N(C)[C@H](C(=O)N(C)C)CC(=O)N2C)N2CC/C=C\C[C@@H](C2=O)N(C)C(=O)CN(C)C1=O [PP3073]
[1]; KD ratio NRAS/KRAS, SPR, GDP-bound wild-type proteins
  NRAS/KRAS (ratio of KD value with respect to GDP-bound NRAS wild-type protein to KD value with respect to KRAS): A (a compound having 10 or more and less than 20 is denoted as A)
[2]; KD ratio HRAS/KRAS, SPR, GDP-bound wild-type proteins
  HRAS/KRAS (ratio of KD value with respect to GDP-bound HRAS wild-type protein to KD value with respect to KRAS): A (a compound having 10 or more and less than 20 is denoted as A)

## CCO[C@@H]1C[C@H]2C(=O)NC3(CCC3)C(=O)N(C)[C@@H](C3CCCC3)C(=O)N(C)[C@H](C(=O)N(C)C)CC(=O)N(C)[C@@H](CC)C(=O)N[C@@H]([C@@H](C)CC)C(=O)N(C)CC(=O)N(C)[C@H]3C[C@H]4C[C@H]4CN(C3=O)[C@@H](Cc3ccc(C(F)(F)F)cc3)C(=O)N(C)CC(=O)N[C@@H](CCc3cc(F)c(C(F)(F)F)c(F)c3)C(=O)N2C1 [PP0830]
[1]; KD ratio, SPR
  NRAS/KRAS (ratio of KD value with respect to NRAS to KD value with respect to KRAS): C (A compound having a KD ratio of 0.1 or more and less than 3 is denoted as C)
[2]; KD ratio, SPR
  HRAS/KRAS (ratio of KD value with respect to HRAS to KD value with respect to KRAS): C (A compound having a KD ratio of 0.1 or more and less than 3 is denoted as C)

## CCO[C@@H]1C[C@H]2C(=O)NC3(CC(C)(C)C3)C(=O)N(C)[C@@H](C3CCCC3)C(=O)N(C)[C@H](C(=O)N(C)CC)CC(=O)N(C)[C@@H](CC(C)C)C(=O)N[C@@H]([C@@H](C)CC)C(=O)N(C)CC(=O)N(C)[C@H]3C/C=C\CCN(C3=O)[C@@H](Cc3ccc(C(F)F)cc3)C(=O)N(C)CC(=O)N[C@@H](CCc3ccc(C(F)(F)F)c(Cl)c3)C(=O)N2C1 [PP2829]
[1]; [3]
  NRAS/KRAS (ratio of KD value with respect to GDP-bound NRAS wild-type protein to KD value with respect to KRAS): A (a compound having 10 or more and less than 20 is denoted as A)
[2]; [4]
  HRAS/KRAS (ratio of KD value with respect to GDP-bound HRAS wild-type protein to KD value with respect to KRAS): A (a compound having 10 or more and less than 20 is denoted as A)

## CCC[C@H]1C(=O)N[C@@H]([C@@H](C)CC)C(=O)N(C2CC2)CC(=O)N(C)[C@H]2C/C=C\CCN(C2=O)[C@@H](Cc2ccc(C(F)(F)F)cc2)C(=O)N(C)CC(=O)N[C@@H](CCc2ccc(Cl)c(Cl)c2)C(=O)N2C[C@H](OCC)C[C@H]2C(=O)NC2(CC(C)(C)C2)C(=O)N(C)[C@@H](CC(C)(C)C)C(=O)N(C)[C@H](C(=O)N(C)C)CC(=O)N1C [PP2749]
[1]; [3]
  NRAS/KRAS (ratio of KD value with respect to GDP-bound NRAS wild-type protein to KD value with respect to KRAS): AA (a compound having 20 or more is denoted as AA)
[2]; [4]
  HRAS/KRAS (ratio of KD value with respect to GDP-bound HRAS wild-type protein to KD value with respect to KRAS): A (a compound having 10 or more and less than 20 is denoted as A)
